Source: US20250197382A1, “KIF18A INHIBITOR” (WIGEN BIOMEDICINE TECHNOLOGY (SHANGHAI) CO., LTD., priority 2022, published 2025)

molecular target: Recombinant human KIF18A (1-467His-tagged) protein (Homo sapiens (Human), UniProt Q8NI77); assay: KIF18A enzyme assay (microtubule-stimulated ATPase activity, ADP-Glo); format: biochemical; details: 30 nM KIF18A, ATP 75 μM, read-out: inhibitory activity against KIF18A IC50
Procedure, shortened: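 Baculovirus-expressed human KIF18A (1-467, His-tagged; 30 nM) preincubated 15 min at room temperature with compound (22-point 2-fold series) in pH 7.5 Tris buffer containing 30 μg/mL pig microtubules and 1 μM paclitaxel.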

Recombinant human KIF18A (1-467His-tagged) protein, sequence (Q8NI77 1-467): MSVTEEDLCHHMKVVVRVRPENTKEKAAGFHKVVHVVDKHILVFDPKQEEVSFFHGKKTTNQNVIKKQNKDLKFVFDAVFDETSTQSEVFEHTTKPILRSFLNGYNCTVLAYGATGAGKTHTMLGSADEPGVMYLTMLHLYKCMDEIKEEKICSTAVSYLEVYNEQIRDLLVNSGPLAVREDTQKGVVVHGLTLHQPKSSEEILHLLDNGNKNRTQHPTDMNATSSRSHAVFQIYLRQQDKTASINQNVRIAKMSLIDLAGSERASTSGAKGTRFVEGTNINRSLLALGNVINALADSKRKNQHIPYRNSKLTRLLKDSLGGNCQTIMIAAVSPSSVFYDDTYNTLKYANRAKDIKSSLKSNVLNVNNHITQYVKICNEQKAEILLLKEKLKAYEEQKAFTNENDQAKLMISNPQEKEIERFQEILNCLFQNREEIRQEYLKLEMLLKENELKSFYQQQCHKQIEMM
Recombinant human KIF18A (1-467His-tagged) protein, sequence (P02550 whole entry partner): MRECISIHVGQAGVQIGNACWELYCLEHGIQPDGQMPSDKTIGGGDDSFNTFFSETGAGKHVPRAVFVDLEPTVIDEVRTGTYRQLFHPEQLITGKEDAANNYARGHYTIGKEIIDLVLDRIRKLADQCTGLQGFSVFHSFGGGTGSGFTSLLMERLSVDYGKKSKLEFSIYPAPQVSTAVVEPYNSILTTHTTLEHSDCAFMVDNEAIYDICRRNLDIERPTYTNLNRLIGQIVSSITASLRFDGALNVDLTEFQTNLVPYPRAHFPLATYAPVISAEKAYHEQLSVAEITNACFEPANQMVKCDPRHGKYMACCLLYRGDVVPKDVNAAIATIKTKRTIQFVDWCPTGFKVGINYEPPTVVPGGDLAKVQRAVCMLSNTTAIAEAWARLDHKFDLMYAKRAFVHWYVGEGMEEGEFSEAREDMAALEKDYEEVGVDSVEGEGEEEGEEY
Recombinant human KIF18A (1-467His-tagged) protein, sequence (P02554 whole entry partner): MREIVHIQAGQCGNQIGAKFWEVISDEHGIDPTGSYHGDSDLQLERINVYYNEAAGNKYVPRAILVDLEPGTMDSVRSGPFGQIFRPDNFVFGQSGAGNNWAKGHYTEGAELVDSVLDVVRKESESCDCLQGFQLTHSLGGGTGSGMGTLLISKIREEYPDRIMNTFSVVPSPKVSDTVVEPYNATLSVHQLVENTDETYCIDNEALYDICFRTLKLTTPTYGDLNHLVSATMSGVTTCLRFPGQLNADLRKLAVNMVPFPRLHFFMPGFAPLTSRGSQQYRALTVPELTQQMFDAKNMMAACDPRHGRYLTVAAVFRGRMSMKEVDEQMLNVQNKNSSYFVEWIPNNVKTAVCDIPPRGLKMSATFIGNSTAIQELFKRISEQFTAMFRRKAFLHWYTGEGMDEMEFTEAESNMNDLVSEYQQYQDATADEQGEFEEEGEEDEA

SMILES	IC50
C[C@H](CO)NS(=O)(=O)c1ccc(C(=O)Nc2cc3c(c(N4CCO[C@H](C)C4)c2)N(C)CC3)c(N2CCC3(CC2)CC3)c1 [Compound 288]	≤ 100 nM
CC1(F)CCN(c2cc(NC(=O)c3ccc(S(=O)(=O)NCCO)cc3N3CCC4(CC3)CC4)cc3ccoc23)C1 (stereo not drawn) [Compound 152]	≤ 100 nM
C[C@@H]1CN(c2cc(NC(=O)c3ccc(S(=O)(=O)N[C@@H](C)CO)cc3N3CCC4(CC3)CC4)cc3c2OCC3)CCO1 [Compound 31]	≤ 100 nM
O=C(Nc1ccc(NS(=O)(=O)CCO)cc1N1CCC2(CC1)CC2)c1cc2c(c(OCCC(F)(F)F)c1)OCC2 [Compound 37]	≤ 100 nM
O=C(Nc1ccc(NS(=O)(=O)CCO)cc1N1CCC2(CC1)CC2)c1cc2c(c(N3CC4CC4C3)c1)OCC2 (stereo not drawn) [Compound 42]	≤ 100 nM
O=C(Nc1cc(OCCC(F)(F)F)c2occc2c1)c1ccc(NS(=O)(=O)CCO)cc1N1CCC2(CC1)CC2 [Compound 133]	≤ 100 nM
CC1(F)CCN(c2cc(C(=O)Nc3ccc(S(=O)(=O)NCCO)cc3N3CCC4(CC3)CC4)cc3c2OCC3)C1 (stereo not drawn) [Compound 56]	≤ 100 nM
CN1CCc2cc(NC(=O)c3ccc(NS(=O)(=O)CCO)cc3N3CCC4(CC3)CC4)cc(N3CCC(C)(F)C3)c21 (stereo not drawn) [Compound 264]	≤ 100 nM
CC1(F)CCN(c2nc(C(=O)Nc3ccc(S(=O)(=O)NCCO)cc3N3CCC4(CC3)CC4)cc3c2OCC3)C1 (stereo not drawn) [Compound 120]	≤ 100 nM
CN1CCc2cc(NC(=O)c3ccc(S(=O)(=O)NCCO)cc3N3CCC4(CC3)CC4)cc(OC3CCC3)c21 [Compound 279]	≤ 100 nM
C[C@H]1CN(c2nc(NC(=O)c3ccc(S(=O)(=O)NCCO)cc3N3CCC4(CC3)CC4)cc3ccoc23)CCO1 [Compound 211]	≤ 100 nM
O=C(Nc1cc(N2CCC(F)CC2)c2occc2c1)c1ccc(S(=O)(=O)NCCO)cc1N1CCC2(CC1)CC2 [Compound 153]	≤ 100 nM
C[C@@H]1CN(c2cc(NC(=O)c3ccc(S(=O)(=O)N[C@@H](C)CO)cc3N3CCC4(CC3)CC4)cc3c2N(C)CC3)CCO1 [Compound 287]	≤ 100 nM
CN1CCc2cc(C(=O)Nc3ccc(NS(=O)(=O)CCO)cc3N3CCC4(CC3)CC4)cc(N3CC(F)(F)C3)c21 [Compound 292]	≤ 100 nM
O=C(Nc1ccc(S(=O)(=O)NCCO)cc1N1CCC2(CC1)CC2)c1cc2c(c(N3CCC(F)CC3)c1)OCC2 [Compound 57]	≤ 100 nM
C[C@@H](CO)NS(=O)(=O)c1ccc(NC(=O)c2cc3c(c(N4CCC(F)(F)CC4)c2)N(C)CC3)c(N2CCC3(CC2)CC3)c1 [Compound 317]	≤ 100 nM
C[C@H]1CN(c2nc(NC(=O)c3ccc(NS(=O)(=O)CCO)cc3N3CCC4(CC3)CC4)cc3c2N(C)CC3)CCO1 [Compound 323]	≤ 100 nM
C[C@H](CO)NS(=O)(=O)c1ccc(NC(=O)c2cc3c(c(N4CCO[C@H](C)C4)c2)N(C)CC3)c(N2CCC3(CC2)CC3)c1 [Compound 320]	≤ 100 nM
O=C(Nc1cc2c(c(N3CCOCC3)n1)OCC2)c1ccc(S(=O)(=O)NCCO)cc1N1CCC2(CC1)CC2 [Compound 92]	≤ 100 nM

SMILES	IC50
O=C(Nc1ccc(S(=O)(=O)NCCO)cc1N1CCC2(CC1)CC2)c1cc2ccoc2c(N2CCC(F)CC2)n1 [Compound 249]	≤ 100 nM
CN1CCc2cc(C(=O)Nc3ccc(S(=O)(=O)NCCO)cc3N3CCC4(CC3)CC4)cc(N3CC4CC4C3)c21 (stereo not drawn) [Compound 314]	≤ 100 nM
CN1CCc2cc(NC(=O)c3ccc(NS(=O)(=O)CCO)cc3N3CCC4(CC3)CC4)nc(N3CC4CC4C3)c21 (stereo not drawn) [Compound 330]	≤ 100 nM
O=C(Nc1cc2ccoc2c(OCCC(F)(F)F)n1)c1ccc(NS(=O)(=O)CCO)cc1N1CCC2(CC1)CC2 [Compound 197]	≤ 100 nM
CC1(F)CCN(c2cc(C(=O)Nc3ccc(S(=O)(=O)NCCO)cc3N3CCC4(CC3)CC4)cc3ccoc23)C1 (stereo not drawn) [Compound 184]	≤ 100 nM
O=C(Nc1cc2c(c(OC3CCC3)c1)OCC2)c1ccc(S(=O)(=O)NCCO)cc1N1CCC2(CC1)CC2 [Compound 23]	≤ 100 nM
CN1CCc2cc(NC(=O)c3ccc(S(=O)(=O)NCCO)cc3N3CCC4(CC3)CC4)cc(N3CCC(F)(F)CC3)c21 [Compound 273]	≤ 100 nM
C[C@@H]1CN(c2nc(NC(=O)c3ccc(S(=O)(=O)NCCO)cc3N3CCC4(CC3)CC4)cc3ccoc23)CCO1 [Compound 210]	≤ 100 nM
O=C(Nc1cc2ccoc2c(N2CCC(F)CC2)n1)c1ccc(NS(=O)(=O)CCO)cc1N1CCC2(CC1)CC2 [Compound 201]	≤ 100 nM
C[C@@H]1CN(c2nc(NC(=O)c3ccc(NS(=O)(=O)[C@H](C)CO)cc3N3CCC4(CC3)CC4)cc3c2OCC3)CCO1 [Compound 80]	≤ 100 nM
CN1CCc2cc(C(=O)Nc3ccc(NS(=O)(=O)CCO)cc3N3CCC4(CC3)CC4)cc(N3CCC4(CC4)C3)c21 [Compound 294]	≤ 100 nM
O=C(Nc1cc2c(c(N3CC4CC4C3)n1)OCC2)c1ccc(NS(=O)(=O)CCO)cc1N1CCC2(CC1)CC2 (stereo not drawn) [Compound 74]	≤ 100 nM
O=C(Nc1ccc(NS(=O)(=O)CCO)cc1N1CCC2(CC1)CC2)c1cc(N2CCC(F)(F)CC2)c2occc2c1 [Compound 161]	≤ 100 nM
O=C(Nc1cc2c(c(N3CC4CC4C3)c1)OCC2)c1ccc(NS(=O)(=O)CCO)cc1N1CCC2(CC1)CC2 (stereo not drawn) [Compound 10]	≤ 100 nM
O=C(Nc1ccc(S(=O)(=O)NCCO)cc1N1CCC2(CC1)CC2)c1cc(N2CCC(F)(F)CC2)c2occc2c1 [Compound 177]	≤ 100 nM
CN1CCc2cc(NC(=O)c3ccc(NS(=O)(=O)CCO)cc3N3CCC4(CC3)CC4)cc(N3CC4CC4C3)c21 (stereo not drawn) [Compound 266]	≤ 100 nM
O=C(Nc1cc2ccoc2c(N2CCC(F)CC2)n1)c1ccc(S(=O)(=O)NCCO)cc1N1CCC2(CC1)CC2 [Compound 217]	≤ 100 nM
C[C@H](CO)S(=O)(=O)Nc1ccc(C(=O)Nc2cc3c(c(N4CCC(F)(F)CC4)n2)OCC3)c(N2CCC3(CC2)CC3)c1 [Compound 78]	≤ 100 nM
CC(C)(CO)Nc1cc(C(=O)Nc2ccc(S(=O)(=O)NCCO)cc2N2CCC3(CC2)CC3)cc2c1OCC2 [Compound 59]	≤ 100 nM

Further lines, results first:

IC50	SMILES
≤ 100 nM	Cn1ccc2cc(NC(=O)c3ccc(NS(=O)(=O)CCO)cc3N3CCC4(CC3)CC4)cc(N3CC(F)(F)C3)c21 [Compound 388]
≤ 100 nM	Cn1ccc2cc(NC(=O)c3ccc(S(=O)(=O)NCCO)cc3N3CCC4(CC3)CC4)nc(N3CC4CC4C3)c21 (stereo not drawn) [Compound 474]
≤ 100 nM	C[C@@H]1CN(c2nc(C(=O)Nc3ccc(S(=O)(=O)NCCO)cc3N3CCC4(CC3)CC4)cc3c2N(C)CC3)CCO1 [Compound 370]
≤ 100 nM	O=C(Nc1cc(N2CCC(F)(F)CC2)c2ncoc2c1)c1ccc(NS(=O)(=O)CCO)cc1N1CCC2(CC1)CC2 [Compound 517]
≤ 100 nM	CN1CCc2cc(NC(=O)c3ccc(S(=O)(=O)NCCO)cc3N3CCC4(CC3)CC4)nc(N3CCC(F)(F)CC3)c21 [Compound 337]
≤ 100 nM	Cn1ccc2cc(NC(=O)c3ccc(S(=O)(=O)NCCO)cc3N3CCC4(CC3)CC4)cc(NC(C)(C)CO)c21 [Compound 411]
≤ 100 nM	Cn1ccc2cc(C(=O)Nc3ccc(NS(=O)(=O)CCO)cc3N3CCC4(CC3)CC4)cc(N3CC4CC4C3)c21 (stereo not drawn) [Compound 426]
≤ 100 nM	CN1CCc2cc(C(=O)Nc3ccc(S(=O)(=O)NCCO)cc3N3CCC4(CC3)CC4)nc(N3CCC(F)CC3)c21 [Compound 377]
≤ 100 nM	C[C@H]1CN(c2nc(C(=O)Nc3ccc(S(=O)(=O)NCCO)cc3N3CCC4(CC3)CC4)cc3c2N(C)CC3)CCO1 [Compound 371]
≤ 100 nM	O=C(Nc1ccc(S(=O)(=O)NCCO)cc1N1CCC2(CC1)CC2)c1cc2c(c(N3CCC(F)(F)CC3)n1)OCCC2 [Compound 550]
≤ 100 nM	Cn1ccc2cc(C(=O)Nc3ccc(NS(=O)(=O)CCO)cc3N3CCC4(CC3)CC4)nc(N3CCC(C)(F)C3)c21 (stereo not drawn) [Compound 488]
≤ 100 nM	Cn1ccc2cc(C(=O)Nc3ccc(S(=O)(=O)NCCO)cc3N3CCC4(CC3)CC4)nc(N3CCC4(CC4)C3)c21 [Compound 502]
≤ 100 nM	Cn1ccc2cc(NC(=O)c3ccc(NS(=O)(=O)CCO)cc3N3CCC4(CC3)CC4)nc(NC(C)(C)CO)c21 [Compound 459]
≤ 100 nM	CN1CCc2cc(C(=O)Nc3ccc(S(=O)(=O)NCCO)cc3N3CCC4(CC3)CC4)nc(N3CC(F)(F)C3)c21 [Compound 372]
≤ 100 nM	C[C@H](CO)NS(=O)(=O)c1ccc(NC(=O)c2cc3ccn(C)c3c(N3CCC(F)(F)CC3)n2)c(N2CCC3(CC2)CC3)c1 [Compound 510]
≤ 100 nM	O=C(Nc1ccc(S(=O)(=O)NCCO)cc1N1CCC2(CC1)CC2)c1cc2c(c(N3CCC(F)(F)CC3)c1)OCCC2 [Compound 547]
≤ 100 nM	CN1CCc2cc(NC(=O)c3ccc(S(=O)(=O)NCCO)cc3N3CCC4(CC3)CC4)nc(OC3CCC3)c21 [Compound 343]
≤ 100 nM	Cn1ccc2cc(C(=O)Nc3ccc(S(=O)(=O)NCCO)cc3N3CCC4(CC3)CC4)cc(NC(C)(C)CO)c21 [Compound 443]
≤ 100 nM	CN1CCc2cc(C(=O)Nc3ccc(NS(=O)(=O)CCO)cc3N3CCC4(CC3)CC4)nc(N3CCC(C)(F)C3)c21 (stereo not drawn) [Compound 360]
≤ 100 nM	O=C(Nc1cc(N2CCC(F)(F)CC2)c2scnc2c1)c1ccc(NS(=O)(=O)CCO)cc1N1CCC2(CC1)CC2 [Compound 515]
≤ 100 nM	Cn1ccc2cc(C(=O)Nc3ccc(S(=O)(=O)NCCO)cc3N3CCC4(CC3)CC4)nc(N3CC4CC4C3)c21 (stereo not drawn) [Compound 506]
≤ 100 nM	Cn1ccc2cc(C(=O)Nc3ccc(NS(=O)(=O)CCO)cc3N3CCC4(CC3)CC4)cc(N3CCC4(CC4)C3)c21 [Compound 422]
≤ 100 nM	C[C@H]1CN(c2cc(NC(=O)c3ccc(NS(=O)(=O)CCO)cc3N3CCC4(CC3)CC4)cc3ccn(C)c23)CCO1 [Compound 387]
≤ 100 nM	O=C(Nc1cc2c(c(N3CCC(F)(F)CC3)n1)OCO2)c1ccc(NS(=O)(=O)CCO)cc1N1CCC2(CC1)CC2 [Compound 538]
≤ 100 nM	CN1CCc2cc(C(=O)Nc3ccc(NS(=O)(=O)CCO)cc3C3CCC4(CC3)CC4)nc(N3CCC4(CC4)C3)c21 [Compound 358]
